Source: paper PMC5462101 (Future medicinal chemistry, 2015)
Marks after values point to notes of the source that are not given here.

Experiments:
[1] = target: T1, soybean lipoxygenase (Glycine max, UniProt P08170); assay: Inhibition of soybean lipoxygenase; type: biochemical
T1 construct: purchased Sigma
T1 sequence (P08170 1-839): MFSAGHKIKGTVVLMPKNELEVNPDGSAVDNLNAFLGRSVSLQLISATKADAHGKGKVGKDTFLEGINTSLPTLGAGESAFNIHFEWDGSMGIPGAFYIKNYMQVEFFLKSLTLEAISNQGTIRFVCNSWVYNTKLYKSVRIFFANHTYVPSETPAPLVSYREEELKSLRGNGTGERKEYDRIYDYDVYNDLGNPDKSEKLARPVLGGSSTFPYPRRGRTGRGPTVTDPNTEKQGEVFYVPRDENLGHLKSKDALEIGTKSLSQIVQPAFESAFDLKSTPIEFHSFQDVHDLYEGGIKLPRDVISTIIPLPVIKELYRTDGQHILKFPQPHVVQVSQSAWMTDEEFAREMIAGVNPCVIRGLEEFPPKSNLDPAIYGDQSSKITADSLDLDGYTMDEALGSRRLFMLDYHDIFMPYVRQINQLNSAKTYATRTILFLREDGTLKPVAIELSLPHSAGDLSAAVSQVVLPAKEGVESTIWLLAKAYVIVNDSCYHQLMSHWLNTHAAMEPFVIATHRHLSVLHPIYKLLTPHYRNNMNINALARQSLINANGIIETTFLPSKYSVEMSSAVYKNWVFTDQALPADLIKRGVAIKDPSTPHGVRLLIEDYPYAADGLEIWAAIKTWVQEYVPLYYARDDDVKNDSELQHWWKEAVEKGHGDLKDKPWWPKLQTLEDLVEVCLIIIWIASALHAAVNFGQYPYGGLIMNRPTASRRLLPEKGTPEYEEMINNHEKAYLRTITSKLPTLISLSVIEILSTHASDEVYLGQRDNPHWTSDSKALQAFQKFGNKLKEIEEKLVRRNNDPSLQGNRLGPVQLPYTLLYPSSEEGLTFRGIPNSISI
Protocol: The substituted pteridines prepared were assayed for inhibition of soybean lipoxygenase (Table 1) (Supplementary Information). Many studies have used readily obtainable soybean lipoxygenase, which is a homologue of mammalian lipoxygenase and well examined. The availability of soybean LOX and its well-characterized crystal structure led to its use in this study.
Determination of soybean lipoxygenase inhibition
A solution in DMSO of each compound to be tested was incubated at room temperature with sodium linoleate (0.1 mM) and a solution of soybean lipoxygenase (EC 1.13.11.12) (1:9 x 10^4 w/v in saline, 0.2 mL, Sigma). The conversion of sodium linoleate to 13-hydroperoxylinoleic acid was monitored by observation at 234 nm and compared with the value of appropriate standard inhibitor (Table 1).
(§1) IC50 determinations. OriginPro 8 was used to determine IC50 values from the sigmoidal line fitted to a graph of log[concentration] against the average percentage inhibition from two independent experiments, with at least 6 different concentrations. The SEM is the calculated standard error in the IC50 value of the fitted line.

[2] = Reducing ability in DPPH assay; details: compound 100 μM
Protocol: Previous work has shown that pterins, their dihydro- and their tetrahydro-derivatives can each be antioxidants or pro-oxidants, depending on the particular conditions. In the present study, several assays were used to assess in vitro antioxidant activity in order to obtain representative information; each method involves the generation of a different radical.
Determination of reducing activity using 1,1-diphenyl-2-picrylhydrazyl radical (DPPH)
To a solution of DPPH in absolute ethanol was added an equal volume of the compound to be tested dissolved in DMSO (20 µL). From a stock solution (10 mM) was prepared a final solution of 100 µM for evaluation of the compounds. The absorbance at 517 nm was recorded after 20 and 60 min at room temperature (Table 2).

[3] = Competition with DMSO for hydroxyl radicals; details: compound at 100 µM, Fe3+/ascorbic acid, DMSO 33 mM
Protocol: Competition of the novel pteridine derivatives with dimethyl sulfoxide for hydroxyl radicals was measured. […] The majority of the derivatives were excellent scavengers of hydroxyl radicals with activity higher than the reference compound 6-hydroxy-2,5,7,8-tetramethylchroman-2-carboxylic acid (Trolox).
Competition of pteridine derivatives with DMSO for hydroxyl radicals
Hydroxyl radicals generated by the Fe^3+/ascorbic acid system were detected by determination of formaldehyde produced from the oxidation of DMSO, according to the procedure of Nash. The reaction mixture comprised ethylenediaminetetracetic acid (EDTA) (0.1 mM), Fe^3+ (167 μM), DMSO (33 mM) in phosphate buffer (50 mM, pH 7.4), ascorbic acid (10 mM) and the compound to be tested at 100 µM. After incubation at 37 °C for 30 min the mixture was quenched with aqueous trichloroacetic acid (17% w/v) (Table 2) and the percentage competition of the tested compounds with DMSO for hydroxyl radicals was determined (Table 2).

[4] = Inhibition of linoleic acid peroxidation (AAPH); details: linoleic acid peroxidation initiated by AAPH, 37 °C, pH 7.4
Source text: Azo compounds that generate free radicals through spontaneous thermal decomposition are useful for in vitro studies of free radical production. The water-soluble AAPH has been extensively used as a clean and controllable source of thermally produced alkylperoxyl free radicals. […] Evidently, the presence of 6,7-dimethyl groups on the pteridine ring greatly enhances protection against lipid peroxidation; the nature of the alkyl group and ring size on the 2-substituent has some, but much less, effect. […] The role of lipophilicity (as assessed from calculated clogP values; Table 1) is not clear, but substituent bulk plays a significant role.
Inhibition of linoleic acid peroxidation
Production of conjugated diene hydroperoxide by oxidation of linoleic acid in an aqueous dispersion was monitored at 234 nm. 2,2’-Azobis(2-amidinopropane) dihydrochloride (AAPH) was used as a free radical initiator. This assay was used to follow oxidative changes and to determine the inhibition of the peroxidation of sodium linoleate by each tested compound. A dispersion of sodium linoleate (16 mM, 10 μL) was added to the UV cuvette containing phosphate buffer (0.05 M, 0.93 mL) at pH 7.4 and kept in a thermostat at 37 °C. The oxidation reaction was initiated at 37 °C under air by the addition of AAPH solution (40 mM, 50 μL). Oxidation was carried out in the presence of aliquots (10 μL) of the tested compound. In the assay without antioxidant, lipid oxidation was measured in the presence of DMSO (10 μL). The rate of oxidation at 37 °C was monitored by recording the increase in absorption at 234 nm caused by conjugated diene hydroperoxide formation (Table 2).
as §1

[5] = test system: rat model of colitis; assay: Acetic acid-induced colitis in the rat; type: in vivo, Fisher 344 rats; details: 0.01 mmol/kg intrarectally, 4% acetic acid; for Change in body weight (%): assessed after 48 h; for Score (levels 0–5): colonic damage score, 48 h
Protocol: LOX has also been associated with inflammation and ulcerative colitis. In the present study, a model for colitis involving intracolonic administration of aqueous 4% acetic acid in the rat was used, leading to acute inflammatory reaction. Treated rats presented partial to diffuse petechial bleeding, single erosion and limited ulceration indicating an overall healing effect of the compounds. Substituted pteridines presenting a satisfactory combination of activities 5a, 18a, 18d and 18f were tested using this in vivo model characterized by diffuse exfoliated mucosa as well as multiple and extended erosion and ulcers of the colon (Table 3). No mortality was encountered.
(§2) Fisher 344 rats (150-200 g) were housed in wire-mesh cages, given standard laboratory chow and tap water ad libitum and acclimatized for one week before experiments. Rats were randomly assigned to experimental groups. All in vivo experiments conform to the law for the protection of experimental animals (Republic of Greece) and are registered at the Veterinary Administration of the Republic of Greece in accordance with recognized guidelines on animal experimentation including Directive 2010/63/EU.
Induction of colitis
Rats were anesthetized using pentobarbital (50 mg/kg ip) prior to administration with 1 mL of either vehicle (0.9% w/v saline) or the compound under study at doses 0.01mmol/kg intrarectally via a polyethylene cannula (fitted to a 1 mL syringe) with the tip inserted approximately 8 cm into the anus. Following 30 min pretreatment, 1 ml of 4% acetic acid was introduced into the colon intrarectally and, after exposure for 60 s, the excess fluid was withdrawn. The luminal content was then expelled by instillation of air (10 mL), the ligature was removed and the abdomen was sutured. Both groups of rats were allowed to recover with food and water and the resulting injury was assessed after 48 h. The experiment was conducted using two groups, each containing 3 animals.
Assessment of colonic damage. Rats were weighed, inspected for the presence of diarrhea and sacrificed using diethyl ether. The colons were excised and opened longitudinally, rinsed with cold saline, pinned out and observed under a dissecting microscope. Colonic damage was scored using the system of MacPherson and Pfeiffer: 0 – normal appearance, 1- hyperaemia, 2 – patchy petechial bleeding, 3 – diffuse petechial bleeding, 4 – partial exfoliated mucosa or single erosion or ulceration, 5 – diffuse exfoliated mucosa or multiple erosions or ulceration. The presence or absence of adhesions between the colon and the surrounding tissues was recorded. Scoring of the colonic damage (Table 4) was carried out by an observer unaware of the treatment.

[6] = test system: carrageenin-induced rat paw edema; assay: Inhibition of carrageenin-induced rat paw edema; type: in vivo, Fisher 344 rats; details: rat, 0.01 mmol/kg intraperitoneally, 1 h, mean of two experiments
Protocol: The incipient pattern of this edema is characterized by the effects of histamine and 5-hydroxytryptamine. After 1 h, reduction of edema in the rat paw achieved by the pteridine 18f was appreciably greater than the reduction induced by the reference compound indomethacin, a nonselective COX-inhibitor and commonly used nonsteroidal anti-inflammatory drug. Thus, 18f and some related pteridines offer significant protection against reactive oxygen species produced in a model of colitis, probably on account of their properties as antioxidants and radical scavengers.
as §2
Inhibition of carrageenin-induced edema
Edema was induced in the right hind paw of Fisher 344 rats (150-200 g) by intradermal injection of aqueous carrageenin (0.1 mL, 2%). Pregnant females were excluded from the study, but both sexes were used. Each group comprised 6-15 rats which were bred and housed under standard conditions and received a diet of commercial food pellets and water ad libitum during maintenance but were entirely fasted during the experiment period. Each compound (0.01 mmol/kg body weight) was suspended in water to which had been added a few drops of Tween 80 and then the mixture was ground in a mortar prior to being administered intraperitoneally and simultaneously with the carrageenin injection. Rats were euthanized 1 h after injection, and the difference between the weight of the injected and non-injected paws was calculated for each animal. The change in paw weight was compared with that in control animals (treated with water) and the inhibition of the edema was expressed as a percentage (Table 4). […]

inhibition at 100 µM ([1]; compound at 100 µM, read-out: Lipoxygenase inhibitory activity (% at 100 µM))	IC50 [4]	IC50 ([1]; sodium linoleate 0.1 mM, read-out: Lipoxygenase inhibitory activity (IC50))	Structure (SMILES)	RA (%) 100μM 20 min [2]	RA (%) 100μM 60 min [2]	Hydroxyl radicals scavenged (%) [3]	Change in body weight (%) [5]	Score (levels 0–5) [5]	Reduction of rat paw edema after 1 h (%) [6]
31.5 ± 0.2%	22 ± 0.8 µM		CN1CCN(c2nc(NCc3ccccc3)c3nccnc3n2)CC1 [Compound 18a]	2%	7%	91%	-4.2%	One rat exhibited hyperemia (1); the rest presented petechial bleeding (patchy to diffuse) (2–3)	
	32.5 ± 1 µM	0.1 ± 0.01 µM	CN1CCN(c2nc(NCc3cccnc3)c3nccnc3n2)CC1 [Compound 18d]	10%	11%	95%	-7%	One rat exhibited patchy petechial bleeding (2), and another diffuse petechial bleeding (3); the rest presented partial exfoliated mucosa or single erosion or ulcer	
			COc1ccc2c(c1)c(CC(=O)O)c(C)n2C(=O)c1ccc(Cl)cc1 [Indomethacin, indomethacin, reference compound]						25 ^† %
